The supplement of paper PMC10307832

Columns and labels:
Assay in all cases: relative viability (nuclei count vs DMSO), 5 days (fraction); higher = more cells survive
XMD13-2 + Crizotinib = compound: C1CC1C(=O)NC2=NNC3=C2C=CC(=C3)C4=CC(=CC=C4)C(=O)NC5CC5 [XMD13-2] + C[C@@H](Oc1cc(-c2cnn(C3CCNCC3)c2)cnc1N)c1c(Cl)ccc(F)c1Cl [Crizotinib] (partner 1 µM)
In short: (§1)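 Lung cancer cell lines in 1536-well plates got either a single drug or a fixed anchor-drug dose together with five library-drug doses (not always all listed) in √10 steps, by pin tool, on the day after seeding. Nuclei were counted after 5 days, and relative viability is the treated-to-vehicle ratio of nuclei counts. Values are medians of duplicate plates.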

Dasatinib + Palbociclib = compound: Cc1nc(Nc2ncc(C(=O)Nc3c(C)cccc3Cl)s2)cc(N2CCN(CCO)CC2)n1 [Dasatinib] + CC(=O)c1c(C)c2cnc(Nc3ccc(N4CCNCC4)cn3)nc2n(C2CCCC2)c1=O [Palbociclib] (partner 0.5 µM)
In short: as §1

Dasatinib + OSI-027 = compound: Cc1nc(Nc2ncc(C(=O)Nc3c(C)cccc3Cl)s2)cc(N2CCN(CCO)CC2)n1 [Dasatinib] + COc1cccc2cc(-c3nc([C@H]4CC[C@H](C(=O)O)CC4)n4ncnc(N)c34)[nH]c12 [OSI-027] (partner 0.5 µM)
In short: as §1

Dasatinib + Decitabine = compound: Cc1nc(Nc2ncc(C(=O)Nc3c(C)cccc3Cl)s2)cc(N2CCN(CCO)CC2)n1 [Dasatinib] + Nc1ncn([C@H]2C[C@H](O)[C@@H](CO)O2)c(=O)n1 [Decitabine] (partner 2 µM)
In short: as §1

**Q.** How did the relative viability (XMD13-2 + Crizotinib; first compound 0.05 µM) turn out when UMC-11 was run?
**A.** Its relative viability is 0.58.

**Q.** What about the relative viability (XMD13-2 + Crizotinib; first compound 0.1581 µM) of the same cell line?
**A.** The relative viability was 0.557.

**Q.** What about the relative viability (XMD13-2 + Crizotinib; first compound 0.5 µM) of the same cell line?
**A.** The relative viability was 0.647.

**Q.** And the relative viability (XMD13-2 + Crizotinib; first compound 1.581 µM)?
**A.** The relative viability was 0.467.

**Q.** What about the relative viability (XMD13-2 + Crizotinib; first compound 5 µM) of the same cell line?
**A.** Its relative viability is 0.329.

**Q.** What about the relative viability (Dasatinib + Palbociclib; first compound 0.005 µM) of the same cell line?
**A.** The relative viability was 0.335.

**Q.** What about the relative viability (Dasatinib + Palbociclib; first compound 0.01581 µM) of the same cell line?
**A.** Its relative viability is 0.278.

**Q.** What about the relative viability (Dasatinib + Palbociclib; first compound 0.05 µM) of the same cell line?
**A.** Its relative viability is 0.27.

**Q.** What about the relative viability (Dasatinib + Palbociclib; first compound 0.1581 µM) of the same cell line?
**A.** The relative viability was 0.236.

**Q.** And the relative viability (Dasatinib + Palbociclib; first compound 0.5 µM)?
**A.** Its relative viability is 0.188.

**Q.** And the relative viability (Dasatinib + OSI-027; first compound 0.005 µM)?
**A.** The relative viability was 0.459.

**Q.** What about the relative viability (Dasatinib + OSI-027; first compound 0.01581 µM) of the same cell line?
**A.** Its relative viability is 0.375.

**Q.** And the relative viability (Dasatinib + OSI-027; first compound 0.05 µM)?
**A.** The relative viability was 0.413.

**Q.** And the relative viability (Dasatinib + OSI-027; first compound 0.1581 µM)?
**A.** Its relative viability is 0.329.

**Q.** What about the relative viability (Dasatinib + OSI-027; first compound 0.5 µM) of the same cell line?
**A.** Its relative viability is 0.264.

**Q.** And the relative viability (Dasatinib + Decitabine; first compound 0.005 µM)?
**A.** Its relative viability is 0.58.

**Q.** What about the relative viability (Dasatinib + Decitabine; first compound 0.01581 µM) of the same cell line?
**A.** Its relative viability is 0.595.

**Q.** And the relative viability (Dasatinib + Decitabine; first compound 0.05 µM)?
**A.** The relative viability was 0.532.

**Q.** And the relative viability (Dasatinib + Decitabine; first compound 0.1581 µM)?
**A.** The relative viability was 0.292.

**Q.** And the relative viability (Dasatinib + Decitabine; first compound 0.5 µM)?
**A.** The relative viability was 0.246.
